Experimental data published in patent US5196453A, “Crystalline deoxyspergualin, process for its preparation and suppository containing the same” (priority 1989, dated 1993).
Values joined by “and” are separate entries in the source; they are usually repeats but may differ in a detail not shown here. Identical values can stand only once. Counter-ions that a name gives are not always drawn. Like-named read-outs stand apart in the source and are kept apart here.

Key:
[1] = Heat stability: undecomposed substance by HPLC after storage at 50° C. for 6 days; assay type: physicochemical
Protocol: To evaluate the heat stability of α-form crystals of deoxyspergualin hydrochloride in comparison with that of the powder, samples were stored at 50° C. for 6 days and were analyzed by high-pressure liquid chromatography (HPLC), and the amount of undecomposed substance was measured.
To evaluate the heat stability of β-form crystals of deoxyspergualin hydrochloride in comparison with that of the powder, samples were stored at 50° C. for 6 days, and analyzed by HPLC to measure the amount of undecomposed substance.
To evaluate the heat stability of the Powder A in comparison with those of α-form crystals and β-form crystals of the above-identified application, samples were stored at 50° C. for 6 days and then analyzed by HPLC to measure the amount of undecomposed substance.

[2] = Hygroscopicity: change in weight after storage at different RH (%) for 24 hrs; assay type: physicochemical; conditions: for Deliquescence (in words): RH of 64%
Protocol: To evaluate the hygroscopicity of the powder and α-form crystals of deoxyspergualin hydrochloride, the change of the weight of each sample was measured after storage in different RH (%) for 24 hrs. To evaluate the hygroscopicity of the powder and β-form crystals of deoxyspergualin hydrochloride, the change in the weight of each sample was measured after storage in different RH (%) for 24 hrs. The hygroscopicity each of the Powder A and α-form crystals and β-form crystals of the above-identified application was evaluated by measuring the change in weight after storage in various RH(%) for 24 hrs.

Cl.Cl.Cl.N=C(N)NCCCCCCC(=O)NC(O)C(=O)NCCCCNCCCN (centres unmarked) [Powder A, N-[4-(3-aminopropyl)aminobutyl]-2-(7-guanidinoheptanamido)-2-hydroxyethanamide trihydrochloride, reference compound]
Amount of undecomposed substance [1]: 59.7% | Increase in weight ([2]; RH 31%): 5.0% | Increase in weight ([2]; RH 43%): 6.3% | Increase in weight ([2]; RH 52%): 7.4% | Increase in weight ([2]; RH 64%): 13.2%

N=C(N)NCCCCCCC(=O)NC(O)C(=O)NCCCCNCCCN (stereo not drawn) [β-form crystals, N-[4-(3-aminopropyl)aminobutyl]-2-(7-guanidinoheptanamide)-2-hydroxyethanamide trihydrochloride]
Amount of undecomposed substance ([1]; trihydrochloride, 8640 min): 100.6% and 100.2% | Increase in weight ([2]; RH 31%, trihydrochloride): 1.7% and 1.2% | Increase in weight ([2]; RH 43%, trihydrochloride): 2.6% and 2.1% | Increase in weight ([2]; RH 52%, trihydrochloride): 3.8% and 3.0% | Increase in weight ([2]; RH 64%, trihydrochloride): 7.3% and 6.1% | Increase in weight ([2]; RH 76%, trihydrochloride): 14.0% | Deliquescence (in words) ([2]; trihydrochloride): did not deliquesce

N=C(N)NCCCCCCC(=O)NC(O)C(=O)NCCCCNCCCN (stereo not drawn) [α-form crystals, N-[4-(3-aminopropyl)aminobutyl]-2-(7-guanidinoheptanamide)-2-hydroxyethanamide trihydrochloride]
Amount of undecomposed substance ([1]; trihydrochloride, 8640 min): 100.1% and 100.0% | Increase in weight ([2]; RH 31%, trihydrochloride): -0.6% and -0.8% | Increase in weight ([2]; RH 43%, trihydrochloride): -0.4% | Increase in weight ([2]; RH 52%, trihydrochloride): -0.1% and -0.2% | Increase in weight ([2]; RH 64%, trihydrochloride): 15.2% and 17.8% | Water absorption (in words) ([2]; RH of 52% or below): did not absorb water

N=C(N)NCCCCCCC(=O)NC(O)C(=O)NCCCCNCCCN (centres unmarked) [Powder, N-[4-(3-aminopropyl)aminobutyl]-2-(7-guanidinoheptanamide)-2-hydroxyethanamide trihydrochloride, reference compound]
Amount of undecomposed substance ([1]; trihydrochloride, 8640 min): 89.8% and 83% | Increase in weight ([2]; RH 14%): 1.5% | Increase in weight ([2]; RH 31%, trihydrochloride): 5.9% | Increase in weight ([2]; RH 43%, trihydrochloride): 9.1% | Increase in weight ([2]; RH 52%, trihydrochloride): 12.6% | Increase in weight ([2]; RH 64%, trihydrochloride): 17.9% | Increase in weight ([2]; RH 76%, trihydrochloride): 28.3% | Deliquescence (in words) ([2]; trihydrochloride): deliquesced
